Reference: ChEMBL document CHEMBL4819045 (Bioorg Med Chem Lett, 2021)

How the values were obtained:
in vitro [1] = conditions: rat
in vitro [2] = conditions: PAMPA
[3] = PAMPA
[4] = rat, microsomes

Row | Structure (SMILES) | half-life (in vitro [1]; liver microsomes) | Papp (in vitro [2]) | further results
1 | O=C(Nc1ccc(C(F)(F)F)cc1)c1cc(Br)ccc1O | > 30 min |  | 
2 | O=C(Nc1ccc([N+](=O)[O-])cc1Cl)c1cc(-c2ccc(F)cc2F)ccc1O | > 30 min | < 23.7 ×10⁻⁶ cm/s | 
3 | Nc1ccc(Cl)cc1C(=O)Nc1ccc([N+](=O)[O-])cc1Cl | 8.7 min | 671 ×10⁻⁶ cm/s | 
4 | COc1ccc(NC(=O)c2cc(Cl)ccc2O)cc1 | 3.3 min | 81 ×10⁻⁶ cm/s | 
5 | O=C(Nc1ccc([N+](=O)[O-])cc1Cl)c1cc([N+](=O)[O-])ccc1O | > 30 min | 30.3 ×10⁻⁶ cm/s | 
6 | O=C(Nc1ncc([N+](=O)[O-])s1)c1cc(Cl)ccc1O | 3 min | 37 ×10⁻⁶ cm/s | 
7 | O=C(Nc1c(Cl)cc([N+](=O)[O-])cc1Cl)c1cc(Cl)ccc1O | 20 min |  | 
8 | COc1cc([N+](=O)[O-])ccc1NC(=O)c1cc(Br)ccc1O | > 30 min |  | 
9 | CC(=O)Nc1ccccc1C(=O)Nc1ccc([N+](=O)[O-])cc1Cl |  | 431 ×10⁻⁶ cm/s | 
10 | O=C(Nc1ccc([N+](=O)[O-])cc1Cl)c1cc(Br)ccc1O | > 30 min | 67.1 ×10⁻⁶ cm/s | 
11 | O=C(Nc1ccc(C(F)(F)F)cc1Cl)c1cc(Br)ccc1O | > 30 min |  | 
12 | O=C(Nc1ccc(F)cc1Cl)c1cc(Cl)ccc1O | 19.3 min | 50.5 ×10⁻⁶ cm/s | 
13 | COc1cccc(NC(=O)c2cc(Cl)ccc2O)c1 | 4 min | 43 ×10⁻⁶ cm/s | 
14 | O=C(Nc1ccc(C(F)(F)F)cc1)c1cc(Cl)ccc1O | > 30 min | < 22.3 ×10⁻⁶ cm/s | 
15 | COc1ccc(Cl)cc1C(=O)Nc1ccc([N+](=O)[O-])cc1Cl | 27 min |  | permeability [3]: 1007 10^-6 cm/s
16 | O=C(Nc1ccccc1[N+](=O)[O-])c1cc(Cl)ccc1O |  | 153 ×10⁻⁶ cm/s | 
17 | COc1cc([N+](=O)[O-])ccc1NC(=O)c1cc(Cl)ccc1O | > 30 min |  | 
18 | O=C(Nc1ccc([N+](=O)[O-])c(Cl)c1)c1cc(Cl)ccc1O | 3.8 min | 68 ×10⁻⁶ cm/s | 
19 | O=C(Nc1ccncc1Cl)c1cc(Cl)ccc1O | > 30 min | 31 ×10⁻⁶ cm/s | 
20 | O=C(Nc1ccc([N+](=O)[O-])cc1Cl)c1ccc(Cl)cc1O | 21.2 min |  | 
21 | Cc1ccc(O)c(C(=O)Nc2ccc([N+](=O)[O-])cc2Cl)c1 | 19.5 min | 134 ×10⁻⁶ cm/s | 
22 | O=C(Nc1ccc([N+](=O)[O-])cc1Cl)c1c(O)ccc2ccccc12 | 14.4 min | 356 ×10⁻⁶ cm/s | 
23 | O=C(Nc1ccccc1Cl)c1cc(Cl)ccc1O | 19 min |  | permeability [3]: 118 10^-6 cm/s

Row | Structure (SMILES) | half-life (in vitro [1]; liver microsomes) | Papp (in vitro [2]) | further results
24 | O=C(Nc1ccc(C(F)(F)F)c(Cl)c1)c1cc(Br)ccc1O | > 30 min | 23.2 ×10⁻⁶ cm/s | 
25 | CC(C)c1cnc(NC(=O)c2cc(Cl)ccc2O)s1 | 2 min | 117 ×10⁻⁶ cm/s | 
26 | O=C(Nc1ccc(C(F)(F)F)c(F)c1)c1cc(Br)ccc1O | > 30 min |  | 
27 | O=C(Nc1ccc([N+](=O)[O-])cc1Cl)c1cc(Cl)ccc1NS(=O)(=O)c1ccccc1 | > 30 min |  | permeability [3]: 2250 10^-6 cm/s
28 | Nc1ccc(NC(=O)c2cc(Cl)ccc2O)c(Cl)c1 | 30 min | 152 ×10⁻⁶ cm/s | 
29 | O=C(Nc1ccc(Cl)cc1)c1cc(Cl)ccc1O | 14 min | 297 ×10⁻⁶ cm/s | 
30 | O=C(Nc1ccc(C(F)(F)F)cc1Cl)c1cc(Cl)ccc1O | > 30 min |  | 
31 | O=C(Nc1ccc([N+](=O)[O-])cc1Cl)c1cc(Cl)ccc1OC1CCNCC1 | > 30 min | 517 ×10⁻⁶ cm/s | 
32 | O=C(Nc1c(Cl)cc(F)cc1Cl)c1cc(Cl)ccc1O | 13 min | 25 ×10⁻⁶ cm/s | 
33 | NS(=O)(=O)c1ccc(NC(=O)c2cc(Cl)ccc2O)cc1 | > 30 min | < 1 ×10⁻⁶ cm/s | 
34 | COc1ccc(C(=O)Nc2ccc([N+](=O)[O-])cc2Cl)c(O)c1 | > 30 min | < 3 ×10⁻⁶ cm/s | 
35 | O=C(Nc1ccc([N+](=O)[O-])c(Cl)c1)c1cc(Br)ccc1O | 20.3 min |  | 
36 | CN1CCC(NC(=O)c2cc(Cl)ccc2O)CC1 | 1.8 min | 212 ×10⁻⁶ cm/s | 
37 | O=C(Nc1ccc([N+](=O)[O-])cc1)c1cc(Cl)ccc1O |  |  | Stabilty [4]: 22 min; permeability [3]: 127.1 10^-6 cm/s
38 | O=C(Nc1ccc2cc([N+](=O)[O-])ccc2c1)c1cc(Cl)ccc1O | > 30 min | 447 ×10⁻⁶ cm/s | 
39 | COc1ccc(O)c(C(=O)Nc2ccc([N+](=O)[O-])cc2Cl)c1 | 17.8 min | 67.1 ×10⁻⁶ cm/s | 
40 | NCCOc1ccc(Cl)cc1C(=O)Nc1ccc([N+](=O)[O-])cc1Cl | > 30 min |  | permeability [3]: 1023 10^-6 cm/s
41 | O=C(Nc1ccc(C(F)(F)F)cc1Cl)c1cc(-c2ccc(F)cc2F)ccc1O | > 30 min |  | 
42 | O=C(Nc1ccc(F)c(Cl)c1)c1cc(Cl)ccc1O | 11 min |  | 
43 | O=C(Nc1ccc(Cl)cc1Cl)c1cc(Cl)ccc1O | > 30 min | < 22.4 ×10⁻⁶ cm/s | 
44 | Cc1ccc(NC(=O)c2cc(Cl)ccc2O)cc1 | 1.6 min | 21 ×10⁻⁶ cm/s | 
45 | Cc1cccc(NC(=O)c2cc(Cl)ccc2O)c1C | 9.4 min | 48 ×10⁻⁶ cm/s | 
46 | O=C(Nc1c(Cl)cccc1Cl)c1cc(Cl)ccc1O | 24 min | 73 ×10⁻⁶ cm/s | 

Row | Structure (SMILES) | half-life (in vitro [1]; liver microsomes) | Papp (in vitro [2]) | further results
47 | O=C(Nc1ccc(C(F)(F)F)cc1Cl)c1ccc2ccccc2c1O | > 30 min |  | 
48 | O=C(Nc1ccc([N+](=O)[O-])cc1Cl)c1c(O)cccc1O | 26.2 min |  | 
49 | O=C(Nc1ccc(F)cc1F)c1cc(Cl)ccc1O | 18 min |  | 
50 | O=C(Nc1ccc([N+](=O)[O-])cc1Cl)c1cccc2cc[nH]c12 | > 30 min |  | permeability [3]: 1763 10^-6 cm/s
51 | CC(=O)c1ccc(O)c(C(=O)Nc2ccc([N+](=O)[O-])cc2Cl)c1 | > 30 min | 33.1 ×10⁻⁶ cm/s | 
52 | O=C(Nc1c(F)cccc1F)c1cc(Cl)ccc1O | > 30 min | 32 ×10⁻⁶ cm/s | 
53 | CS(=O)(=O)Nc1ccc(Br)cc1C(=O)Nc1ccc([N+](=O)[O-])cc1Cl | > 30 min | 85.1 ×10⁻⁶ cm/s | 
54 | N#Cc1ccc(NC(=O)c2ccc3ccccc3c2O)c(Cl)c1 | 27 min | 111 ×10⁻⁶ cm/s | 
55 | Nc1cccc(Cl)c1C(=O)Nc1ccc([N+](=O)[O-])cc1Cl | 2.2 min | 450 ×10⁻⁶ cm/s | 
56 | O=C(Nc1ccc([N+](=O)[O-])cc1Cl)c1ccc2ccccc2c1O | 16.6 min | 90.2 ×10⁻⁶ cm/s | 
57 | COc1ccc(Cl)c(NC(=O)c2cc(Cl)ccc2O)c1 | 5.4 min | 34 ×10⁻⁶ cm/s | 
58 | O=C(Nc1ccc(F)cc1)c1cc(Cl)ccc1O | 18.4 min |  | permeability [3]: 390.8 10^-6 cm/s
59 | N#Cc1ccc(NC(=O)c2cccc3cc[nH]c23)c(Cl)c1 | 15 min | 553 ×10⁻⁶ cm/s | 
60 | O=C(Nc1ccccc1C(F)(F)F)c1cc(Cl)ccc1O | 15 min | 26 ×10⁻⁶ cm/s | 
61 | O=C(Nc1ccc([N+](=O)[O-])c2ccccc12)c1cc(Cl)ccc1O | 10.7 min | 141 ×10⁻⁶ cm/s | 
62 | N#Cc1ccc(NC(=O)c2cc(Cl)ccc2O)c(Cl)c1 | > 30 min | 5.1 ×10⁻⁶ cm/s | 
63 | O=C(Nc1ccc([N+](=O)[O-])cc1Cl)c1cnc2ccccc2c1O | 18 min | 499 ×10⁻⁶ cm/s | 
64 | N#Cc1ccc(NC(=O)c2cc(-c3ccc(F)cc3F)ccc2O)c(Cl)c1 | > 30 min |  | 
65 | CN(C)C(=O)c1cccc(NC(=O)c2cc(Cl)ccc2O)c1 | 26 min | 5 ×10⁻⁶ cm/s | 
66 | O=C(Nc1ccc([N+](=O)[O-])cc1Cl)c1cc(Cl)ccc1O [NICLOSAMIDE] |  | < 1 ×10⁻⁶ cm/s | half-life (in vitro [1]; microsomes): > 30 min
67 | CC(=O)Nc1ccc(NC(=O)c2cc(Cl)ccc2O)c(Cl)c1 | > 30 min | 87 ×10⁻⁶ cm/s | 
